According to ChEMBL document CHEMBL3734680, “Synthesis and relationship of stability and biological activity of new DSS and TMP conjugates” (Medchemcomm, 2015):
Active and inactive are the calls of the source. No cut-off for these calls is given here.

Columns and labels:
carboxyesterase = test: Half life of compound assessed as carboxyesterase (unknown origin)-mediated drug degradation at 0.655 x 10^3 uM by HPLC analysis; assay type: ADME; details: human
H9c2 [1] = test: Cardioprotective activity against t-BHP-induced injury in rat H9c2 cells preincubated for 1 hr followed by t-BHP challenge for 12 hrs by MTT assay; assay type: functional, cell-based
H9c2 [2] = test: Cardioprotective activity against doxorubicin-induced injury in rat H9c2 cells preincubated for 1 hr followed by doxorubicin challenge for 24 hrs by MTT assay; assay type: functional, cell-based
H9c2 [3] = test: Induction of mitochondrial biogenesis in rat H9c2 cells assessed as mitochondrial DNA replication after 24 hrs by Mitotracker/DAPI/FITC-staining based immunofluorescence analysis relative to control; assay type: functional, cell-based
H9c2 [4] = test: Induction of mitochondrial biogenesis in rat H9c2 cells assessed as upregulation of Tfam mRNA expression at 30 uM after 24 hrs by RT-PCR analysis relative to control; assay type: functional, cell-based
H9c2 [5] = test: Induction of mitochondrial biogenesis in rat H9c2 cells assessed as upregulation of PGC-1beta mRNA expression at 30 uM after 24 hrs by RT-PCR analysis relative to control; assay type: functional, cell-based
H9c2 [6] = test: Cardioprotective activity against doxorubicin-induced injury in rat H9c2 cells assessed as inhibition of LDH leakage preincubated for 1 hr followed by doxorubicin challenge for 24 hrs; assay type: functional, cell-based

| Compound | half-life (carboxyesterase) | Activity (H9c2 [1]) | Activity (H9c2 [2]) | Activity (H9c2 [3]) | Activity (H9c2 [4]) | Activity (H9c2 [5]) | Activity (H9c2 [6]) |
| --- | --- | --- | --- | --- | --- | --- | --- |
| CC(=O)Oc1ccc(CC(OC(C)=O)C(=O)OCc2nc(C)c(C)nc2C)cc1OC(C)=O (stereo not drawn) | 10.3 min | Active |  |  |  |  |  |
| CC(=O)Oc1ccc(C[C@@H](OC(C)=O)C(=O)OC(C)c2nc(C)c(C)nc2C)cc1OC(C)=O (stereo partly drawn) | 10.6 min | Active |  |  |  |  |  |
| C=CCC(CC=C)(OC(=O)[C@@H](Cc1ccc(OC(C)=O)c(OC(C)=O)c1)OC(C)=O)c1nc(C)c(C)nc1C | 20.5 min | Active | Dose-dependent effect | Active | Active | Active | Dose-dependent effect |
| C=CCC(OC(=O)[C@@H](Cc1ccc(OC(C)=O)c(OC(C)=O)c1)OC(C)=O)c1nc(C)c(C)nc1C (stereo partly drawn) | 11.3 min | Active |  |  |  |  |  |
